Patent publication US12139481B2, “Compositions comprising macrocycle derivatives incorporating bridged macrocycles and methods of producing and using same” (Southwestern Oklahoma State University, priority 2015, dated 2024)

Tests used:
[1] = test system: Cryptococcus neoformans ATCC 90113; experiment: Antimicrobial microdilution assay against Cryptococcus neoformans (modified CLSI/NCCLS, optical density); assay type: cell-based; settings: for X more potent than Amphotericin B: C. neoformans, ratio of molar IC50 to Amphotericin B; for C. neoformans IC50 / IC50: in vitro, C. neoformans ATCC 90113; for IC50: read-out: C. neoformans IC50 (mol/L)
Method in brief: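 Fungicidal endpoint taken by subculturing 5 μL from each clear well onto agar, MFC being the lowest concentration with no regrowth. Duplicate wells of serially diluted compound (20% DMSO/saline) in RPMI pH 6.0, read at 630 nm pre- and post-incubation, under modified CLSI methods. IC50 means 50% growth inhibition against controls.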

C. glabrata ATCC 90030 = experiment: Antifungal broth dilution assay against C. glabrata (modified CLSI); assay type: cell-based, Candida glabrata; settings: for C. glabrata IC50 / IC50: in vitro; for IC50: converted with molecular weight; for X more potent than Amphotericin B: molar IC50 ratio versus amphotericin B
Experimental: General Experimental Procedures. All organisms were obtained from the American Type Culture Collection (Manassas, VA) and include the fungi Candida albicans ATCC 90028, C. glabrata ATCC 90030, C. krusei ATCC 6258, and Cryptococcus neoformans ATCC 90113, and the bacteria Staphylococcus aureus ATCC 29213 and methicillin-resistant S. aureus ATCC 33591 (MRS). All organisms were tested using modified versions of the CLSI (formerly NCCLS) methods. For all organisms, optical density was used to monitor growth (NCCLS, Reference Method for Broth Dilution Antifungal Susceptibility Testing of Yeasts; Approved Standard M27-A2. National Committee on Clinical Laboratory Standards, 2002 22 (15); and NCCLS, Methods for Dilution Antimicrobial Susceptibility Tests for Bacteria that Grow Aerobically; Approved Standard, Seventh Edition M7-A7. National Committee on Clinical Laboratory Standards, 2006. 26(2)).
Samples (dissolved in DMSO) were serially-diluted in 20% DMSO/saline and transferred (10 μL) in duplicate to 96 well flat bottom microplates. Inocula were prepared by correcting the OD630 of microbe suspensions in incubation broth [RPMI 1640/0.2% dextrose/0.03% glutamine/MOPS @ pH 6.0 (Cellgro) for Candida spp., Sabouraud Dextrose for C. neoformans, and cation-adjusted Mueller-Hinton (Difco) @ pH 7.3 for Staphylococcus spp. to afford an assay volume of […] and final target inocula of: Candida spp. and C. neoformans: 1.5×10^3, and Staphylococcus spp.: 5.0×10^5 CFU/ml. Final sample test concentrations were 1/100th the DMSO stock concentration. […] All organisms were read at either 530 nm using the Biotek Powerwave XS plate reader (Bio-Tek Instruments, Vermont) prior to and after incubation: Candida spp. at 35° C. for 46-50 h, Staphylococcus spp. at 35° C. for 16-20 h, and C. neoformans at 35° C. for 70-74 h. IC50s (concentrations that afford 50% inhibition relative to controls) were calculated using XLfit 4.2 software (IDBS, Alameda, CA) using fit model 201. The MIC is defined as the lowest test concentration that allows no detectable growth. Minimum fungicidal or bactericidal concentrations were determined by removing 5 μl from each clear (or blue) well, transferring to fresh media, and incubating as previously mentioned. The MFC/MBC is defined as the lowest test concentration that kills the organism (allows no growth).
Primary Analysis. Samples were tested in duplicate at one test concentration (50 μg/mL), and percent inhibitions were calculated relative to blank and growth controls. Samples showing 50% inhibition in at least one test organism were selected for dose response (Secondary) studies.
Secondary Analysis. Extracts from the Primary Assay, and first-run pure compounds and column fractions were tested in duplicate at 3 test concentrations (5-fold dilutions). Samples dissolved to 20 mg/mL in DMSO were tested at 200, 40, and 8 μg/mL. Samples dissolved to 2 mg/mL in DMSO were tested at 20, 4, and 0.8 μg/mL.

[2] = test system: L. donovani promastigotes; experiment: Antileishmanial Alamar Blue assay on promastigotes; assay type: cell-based, Leishmania donovani; settings: for X more potent than Pentamidine: L. donovani, ratio of molar IC50 to Pentamidine; for L. donovani IC50 / IC50: promastigotes, 48 hours, Alamar Blue; for IC50: read-out: L. donavani IC50
Experimental: Methods: The compounds were screened in vitro against the promastigote forms of the leishmania parasites employing the Alamar Blue assay as discussed below.
Antileishmanial activity of the compounds was tested in vitro against a culture of L. donovani promastigotes, grown in RPMI 1640 medium supplemented with 10% fetal calf serum (FCS, Gibco Chem. Co., Grand Island, NY) at 26° C. A 3-day-old culture was diluted to 5×10^5 promastigotes/mL. Drug dilutions (50-3.1 μg/mL) were prepared directly in cell suspension in 96-well plates. Plates were incubated at 26° C. for 48 hours, and growth of leishmania promastigotes was determined by Alamar Blue assay. Standard fluorescence was measured on a FLUOstar® Galaxy plate reader (BMG Lab Technologies, Ortenberg, Germany) at an excitation wavelength of 544 nm and emission wavelength of 590 nm. Pentamidine and amphotericin B were used as the standard antileishmanial agents. Percent growth was calculated and plotted versus test concentration for computing the IC50 values.

Molecule	X more potent than Amphotericin B [1]	C. neoformans IC50 [1]	IC50 [1]	C. glabrata IC50 (C. glabrata ATCC 90030)	IC50 (C. glabrata ATCC 90030)	X more potent than Amphotericin B (C. glabrata ATCC 90030)	X more potent than Pentamidine [2]	L. donovani IC50 [2]	IC50 [2]
C1CNCCN2CCCNCCN(C1)CCC2.CC(=O)[O-].F[P-](F)(F)(F)(F)F.F[P-](F)(F)(F)(F)F.O.[Co+2].[NH4+] [SLK38B, [Co(H2PBCyclam)(OAc)]PF6•NH4PF6•H2O]	0.03	6.230 µg/mL	9.1 µM	0.375 µg/mL	0.548 µM	2.59			
[Ni2(p-CB-cyclam-cyclen)(OAc)2][PF6]2 [CMB028]	0.19	1.330 µg/mL	1.23 µM	4.490 µg/mL	4.16 µM	0.34	0.19	30.69 µg/mL	28.4 µM
CN1CCN2CCN(CC1)CCN(Cc1ccccn1)CC2 [KRW32, Me1Pic1-CB-cyclen]	0.01	5.490 µg/mL	18.1 µM	14.360 µg/mL	47.3 µM	0.03			
[Co3(tris-CB-Cyclams)(OAc)1.51][PF6]4.5 [BNS24]	0.52	≤ 0.800 µg/mL	0.456 µM	1.490 µg/mL	0.85 µM	1.67			
[Cu2(m-cyclam-homocyclen)(OAc)1.5][PF6]2.5 [AW051A]	0.23	1.172 µg/mL	1.02 µM	7.253 µg/mL	6.32 µM	0.22			
CC(=O)[O-].CC(=O)[O-].CN1CCCN2CCN(CCCN(Cc3ccc(CN4CCCN5CCN(C)CCCN(CC5)CC4)cc3)CC2)CC1.F[P-](F)(F)(F)(F)F.F[P-](F)(F)(F)(F)F.[Zn+2].[Zn+2] [KS34, [Zn2(p-CB-cyclams)(OAc)2](PF6)2]	0.41	0.650 µg/mL		15.760 µg/mL		0.10	0.25	23.49 µg/mL	
CC(=O)[O-].Clc1cc(CN2CCCN3CCN(CCCNCC2)CC3)cc(Cl)n1.F[P-](F)(F)(F)(F)F.[Co+2] [KLC002A]				16.070 µg/mL	24.8 µM	0.06			
[Cu2(p-CB-cyclam-cyclen)(OAc)2][PF6]2 [CMB029]	0.32	≤ 0.800 µg/mL	0.734 µM	4.190 µg/mL	3.84 µM	0.37			
CC(=O)[O-].F[P-](F)(F)(F)(F)F.O.[Co+2].c1ccc(CN2CCCNCCN(Cc3ccccc3)CCCNCC2)cc1 [BME07, [Co(Bn2Cyclam)(OAc)PF6•H2O]	0.02	6.980 µg/mL	10.6 µM	0.597 µg/mL	0.903 µM	1.57			
[p-(DCP-BMBCyclams)]Br4 [SLK26]				5.705 µg/mL	4.78 µM	0.30	0.43	14.76 µg/mL	12.4 µM
[Co2(m-SB-cyclam-cyclen)(OAc)2][PF6]4•H2O [CMB032]	0.41	≤ 0.800 µg/mL	0.588 µM	1.310 µg/mL	0.963 µM	1.47			
[m-(BMBCyclams)]Br2 [DJD05]	0.05	3.250 µg/mL	4.56 µM	4.213 µg/mL	5.91 µM	0.24	0.21	18.18 µg/mL	25.5 µM
CC(=O)[O-].CC(=O)[O-].CC(=O)[O-].CN1CCCN2CCN(CCCN(Cc3cc(CN4CCCN5CCN(C)CCCN(CC5)CC4)cc(CN4CCCN5CCN(C)CCCN(CC5)CC4)c3)CC2)CC1.F[P-](F)(F)(F)(F)F.F[P-](F)(F)(F)(F)F.F[P-](F)(F)(F)(F)F.[Cu+2].[Cu+2].[Cu+2] [BNS25, [Cu3(tris-CB-Cyclams)(OAc)3][PF6]3]	0.20	1.950 µg/mL	1.19 µM	5.420 µg/mL	3.31 µM	0.43			
C1CNCCN2CCCNCCN(C1)CCC2 [DJD27, H2PBCyclam]	0.03	1.830 µg/mL	7.61 µM	3.380 µg/mL	14.1 µM	0.10			
c1ccc(CN2CCN3CCN(CC2)CCN(Cc2ccccn2)CC3)nc1 [PW95]				14.850 µg/mL	39 µM	0.04			
[Ni2(p-CB-Homocyclens)(OAc)2][PF6]2 [TJH378A]	0.03	7.540 µg/mL	6.98 µM	5.150 µg/mL	4.77 µM	0.30			
CC(=O)[O-].CC(=O)[O-].F[P-](F)(F)(F)(F)F.F[P-](F)(F)(F)(F)F.O.O.[Co+2].[Co+2].c1cc(CN2CCNCCN3CCN(CC3)CC2)cc(CN2CCNCCN3CCN(CC3)CC2)c1 [OB36, [Co2(m-SB-Cyclens)(OAc)2][PF6]2•2H2O]	0.32	≤ 0.800 µg/mL	0.754 µM	3.720 µg/mL	3.51 µM	0.40			
